The nature of series [1]: Stability assays of the micronised samples (polymorphic stability on storage, PXRD). To be noted: transparent and opaque vacuum containers; for % of orthorhombic form after 1 months / % of orthorhombic form after 3 months: 40° C.-75% RH; for % of orthorhombic form after 2 months: 25° C.-60% RH. Type of series: physicochemical. As to the method:
During the storage period of 1 month, 2 months or 3 months, a temperature of 25° C. and a relative humidity of 60%, or a temperature of 40° C. and a relative humidity of 75%, may be used. For such tests, the samples may be placed into either or both of transparent and opaque vacuum containers. […] The monoclinic and orthorhombic forms of asenapine maleate were characterised, and thus distinguished, by the powder X-ray diffraction pattern (PXRD) of the asenapine maleate, as described in EP 1710245.
(§1) Powder X-Ray Diffraction (PXRD) patterns were acquired on a D8 Advance Series 2Theta/Theta powder diffraction system using CuKα-radiation in transmission geometry. The system was equipped with a VANTEC-1 single photon counting PSD, a Germanium monochromator, a ninety positions auto changer sample stage, fixed divergence slits and radial soller. Programs used: Data collection with DIFFRAC plus XRD Commander V.2.5.1 and evaluation with EVA V.12.0. The samples were prepared and placed in standard sample holders using two foils of polyacetate. Five hours scans in a range from 8° to 20° in 2θ were carried out.
Stability assays of the new stable monoclinic form of asenapine maleate obtained as described above were performed after 1 month, 2 months and 3 months. The samples were placed into two different types of containers, transparent and opaque vacuum containers. The stability tests were carried out at two different storage conditions, 25° C. and 60% relative humidity (RH), and at 40° C. and 75% RH.

The nature of series [2]: PXRD determination of orthorhombic form content in the micronised product. It is filed as physicochemical. As to conditions: for orthorhombic form contained in the micronised product, as determined by PXRD / polymorphic purity (monoclinic form) of the micronised product: after micronisation; for % of orthorhombic form in the micronised product: directly after micronisation, before storage. As to the method: as §1

Counter-ions that a name gives are not always drawn. Where only a bound is given, the exact number is not on record here.

Regarding `CN1C[C@@H]2c3ccccc3Oc3ccc(Cl)cc3[C@H]2C1` (racemic) [Example 2, asenapine maleate], in series [1], the “% of orthorhombic form after 1 months” value was found to be 9% and the “% of orthorhombic form after 3 months” value is recorded as 13%. In series [2], the “orthorhombic form contained in the micronised product, as determined by PXRD” value (“orthorhombic form contained” for short) is reported as “about 5 % by weight” and the “% of orthorhombic form in the micronised product” value worked out at 5%.

Take `CN1C[C@@H]2c3ccccc3Oc3ccc(Cl)cc3[C@H]2C1` (racemic) [Example 2.1, asenapine maleate]: in series [1], the “% of orthorhombic form after 2 months” value is on record as 5%, the “% of orthorhombic form after 1 months” value was found to be 8% and the “% of orthorhombic form after 3 months” value worked out at 12%. The “% of orthorhombic form in the micronised product” value in series [2] is given as under 1%.

In the case of `CN1C[C@@H]2c3ccccc3Oc3ccc(Cl)cc3[C@H]2C1` (racemic) [Example 3, asenapine maleate], in series [1], the “% of orthorhombic form after 1 months” value turned out to be 5% and the “% of orthorhombic form after 3 months” value is given as 8%. Moreover, in series [2], the “orthorhombic form contained” value is given as “about 3 % by weight” and the “% of orthorhombic form in the micronised product” value came to 3%.

For `CN1C[C@@H]2c3ccccc3Oc3ccc(Cl)cc3[C@H]2C1` (racemic) [Example 5, asenapine maleate], in series [2], the “orthorhombic form contained” value is on record as “less than 1 % by weight”; the “polymorphic purity (monoclinic form) of the micronised product” value (from here on “polymorphic purity (monoclinic form)”) is on record as over 99 % by weight; the “% of orthorhombic form in the micronised product” value is under 1%.

`CN1C[C@@H]2c3ccccc3Oc3ccc(Cl)cc3[C@H]2C1` (racemic) [Example 3.1, asenapine maleate]: in series [1], the “% of orthorhombic form after 2 months” value was 3%, the “% of orthorhombic form after 1 months” value is recorded as 4% and the “% of orthorhombic form after 3 months” value turned out to be 7%. Further, in series [2], the “% of orthorhombic form in the micronised product” value was under 1%.

For `CN1C[C@@H]2c3ccccc3Oc3ccc(Cl)cc3[C@H]2C1` (racemic) [Example 6, asenapine maleate], in series [2], the “orthorhombic form contained” value is “less than 1 % by weight” and the “polymorphic purity (monoclinic form)” value is on record as over 99 % by weight.

As to `CN1C[C@@H]2c3ccccc3Oc3ccc(Cl)cc3[C@H]2C1` (racemic) [Example 4, asenapine maleate], in series [2], the “orthorhombic form contained” value is given as “less than 1 % by weight”; the “polymorphic purity (monoclinic form)” value was over 99 % by weight; the “% of orthorhombic form in the micronised product” value is reported as under 1%.

The record behind these values is US9505771B2, “Stable micronised monoclin form of asenapine maleate and its synthesis” (Laboratories Lesvi S.L., priority 2011, dated 2016).
